Assay results from publication PMC11375702, “Early Preclinical Studies of Ergosterol Peroxide and Biological Evaluation of Its Derivatives” (ACS Omega, 2024).
Converted amounts (≈) assume the structure as drawn. Where two headings read alike, the source gives them in different places.

What was measured:
SUM149 = assay: CellTiter-Glo 72 h cytotoxicity assay, SUM149; format: cell-based; details: Homo sapiens; for EC50: SUM149, CTG assay, 72 h; for IC50: calculated from SUM149 EC50
Description: (§1) First, topological polar surface area (tPSA), a widely used molecular descriptor that provides insight into compound absorption and membrane penetration, was theoretically calculated for these compounds along with the estimated c log P (partition coefficient) or log P to further assess their global therapeutic potential.[18],[19] Lipophilicity, a measurable and predictable physical property, can provide practical guidance in designing compounds with improved molecular properties.[20] The tPSA sums the contribution of the surface area of polar atoms, enabling us to determine whether the compounds are more likely to be cell membrane permeable. The aqueous solubility was measured by ultraviolet/visible (UV/vis) spectroscopy.[21] […] EP shares an improved cLogP, but still relatively high from a desirable drug candidate (2.5–3.5). […] Compound 4 has a higher c log P, while compounds 5–10 have lower c log P values. To determine LiPE (lipophilicity efficiency), the following formula was used: LiPE = pIC50 – log P, according to established methods.[22],[23] […] The obtained EC50 values for the newly generated EP derivatives were within a similar range for other derivatives previously described against TNBC models.[17]
The following stable human cell lines were utilized for this study: SUM149 and MDA-MB-231 (breast cancer models) and BJ (human normal fibroblast, foreskin). Cells were purchased from BioIVT or the American Type Culture Collection (ATCC). Cells were cultured in F-12-Nutrient Mixture (SUM149), DMEM (MDA-MB-231), or EMEM (BJ) medium supplemented with 10% fetal bovine serum (Sigma-Aldrich, St. Louis, MO) and 2 mmol of L-glutamine, at 37 °C in a humidified 5% CO2 atmosphere (no antibiotics) as indicated by the manufacturer. Cell cultures were grown to 80–90% confluence before use, except where otherwise specified. Our cell lines are authenticated every 3 months using the CellCheck service (Idexx BioResearch, Westbrook, ME). Cells were tested for mycoplasma prior to use (MycoAlert detection Kit Lonza LT07–318) and discarded if they tested positive. A cell proliferation assay was performed using the CellTiter-Glo (Promega Corp., Madison, WI) luminescent cell viability assay kit. Cells were detached with trypsin, counted, and seeded in white polystyrene flat-bottom sterile 96-well tissue culture-treated plates (catalog no. 3917, Corning, Glendale, Arizona) and incubated overnight at 37 °C. MDA-MB231, SUM149, and BJ cells were seeded into 96-well plates at concentrations experimentally determined (0.4 × 10^4, 0.25 × 10^4, and 0.3 × 10^4 cells per well, respectively) to ensure logarithmic growth during the duration of the experiment and to prevent adverse effects on cell growth by DMSO exposure. The plates were incubated for 12 h before treatment. Stock solutions of test compounds (10 mM in DMSO) in nine 3-fold serial dilutions were dispensed. The final concentration of DMSO was 0.3% (v/v) in each well. The positive control used was staurosporine (10 μM) as the kill-all control, and the negative control used is DMSO as we have published. Staurosporine is a potent alkaloid inducer of various cell death modalities but primarily apoptosis, making it a reliable positive control for viability assays. The plates were incubated for 72 h and then quenched with CTG at 50 μL per well at RT. Plates were then incubated at RT for 20 min and centrifuged at 1000 rpm for 1 min. Luminescence was read on a CLARIOstar Plus plate reader (BMG LabTech, Ortenberg, Germany).
Three or four technical replicates were conducted for each experimental condition, and a minimum of three independent experiments were conducted for each assay. In vitro ADME values were expressed as mean ± standard deviation (SD) of at least three independent experiments. One-way analysis of variance (ANOVA) was adopted for comparisons among groups using the GraphPad Prism 10.2.3 (GraphPad Software, San Diego, CA). A difference of P < 0.05 was considered as statistically significant. […]

[1] = Aqueous solubility by UV/vis absorbance; format: physicochemical; details: kinetic from dmso stock
Description: as §1
Briefly, clear 96-well PS plates with lids (catalog no. 3903, Corning, Glendale, Arizona) were used for spectrophotometric determination of absorbance with a CLARIOstar Plus plate reader (BMG LabTech, Ortenberg, Germany) to determine at which concentration the compounds are precipitating out of solution. Decrease in transmittance of 2% or higher was considered significant. Compound solutions of 10 mM in DMSO were prepared followed by a serial dilution series, which were vortexed to ensure the solutions were homogeneous. The 96-well plate was then prepared with distilled H2O and allowed to equilibrate for 1.5 h. Then, the plate was placed in a CLARIOstar Plus plate reader or Cytation C10 (Biotek, Agilent) and set to detect absorbance at 220–700 nm. Each well was read individually. Three replicate assays were conducted for each experimental condition, and a minimum of three independent experiments were conducted.

[2] = Caco-2 permeability assay; format: in vitro ADME; details: human; for efflux ratio at 2 h, 10 µmol/L: Caco-2, pH 7.4, Caco-2, read-out: efflux ratio (B2A/A2B); for Papp A→B at 2 h, 10 µmol/L / Papp B→A at 2 h, 10 µmol/L: Caco-2, pH 7.4; for Papp A→B at 2 h, 10 µmol/L: apical to basolateral; for Papp B→A at 2 h, 10 µmol/L: basolateral to apical
Protocol: It was performed in the 96-well Transwell system with a modified method.[36] Caco-2 cells were maintained at 37 °C in a humidified incubator with an atmosphere of 5% CO2. The cells were cultured in MEM containing 20% FBS in […], 100 units/mL penicillin, and 100 μg/mL of streptomycin. The Caco-2 cells were seeded onto inserts of a 96-well plate at a density of 0.5 × 10^5 cells/insert and cultured in the MEM containing 20% FBS for 7 days. Each cultured monolayer on the 96-well plate was washed twice with HBSS/HEPES (10 mM, pH 7.4). The permeability assay was initiated by the addition of each compound solution (10 μmol/L) into inserts (apical side, A) or receivers (basolateral side, B). The Caco-2 cell monolayers were incubated for 2 h at 37 °C. Fractions were collected from receivers (if apical to basal permeability) or inserts (if basal to apical permeability), and concentrations were assessed by UPLC/MS (Waters; Milford, MA). All compounds were tested in triplicates. The A → B (or B → A) apparent permeability coefficients ([…]) of each compound were calculated using the equation Pappa = dQ/dt × 1/AC0. The flux of a drug across the monolayer is dQ/dt (μmol/s). The initial drug concentration on the apical side is C0 (μmol/L). The surface area of the monolayer is A (cm^2).

CYP2C9 = target: T1, CYP2C9 (Homo sapiens, UniProt P11712); assay: Microsomal CYP inhibition assay, CYP2C9; format: in vitro ADME
T1 construct: from tissue; host or cells: pooled human liver microsomes
Protocol: To assess potential cardiotoxicity, we performed the human ether-go-go-related gene (hERG) inhibition assay. […] Briefly, EP was tested at six concentrations (cumulative concentration–response). […] For hepatotoxicity determination, we performed the microsomal CYP inhibition assay. Briefly, EP was incubated at seven increasing concentrations with pooled human liver microsomes. […] The supernatants were analyzed by LC-MS/MS.

[3] = Plasma stability assay (human)

T1 sequence (P11712 whole entry): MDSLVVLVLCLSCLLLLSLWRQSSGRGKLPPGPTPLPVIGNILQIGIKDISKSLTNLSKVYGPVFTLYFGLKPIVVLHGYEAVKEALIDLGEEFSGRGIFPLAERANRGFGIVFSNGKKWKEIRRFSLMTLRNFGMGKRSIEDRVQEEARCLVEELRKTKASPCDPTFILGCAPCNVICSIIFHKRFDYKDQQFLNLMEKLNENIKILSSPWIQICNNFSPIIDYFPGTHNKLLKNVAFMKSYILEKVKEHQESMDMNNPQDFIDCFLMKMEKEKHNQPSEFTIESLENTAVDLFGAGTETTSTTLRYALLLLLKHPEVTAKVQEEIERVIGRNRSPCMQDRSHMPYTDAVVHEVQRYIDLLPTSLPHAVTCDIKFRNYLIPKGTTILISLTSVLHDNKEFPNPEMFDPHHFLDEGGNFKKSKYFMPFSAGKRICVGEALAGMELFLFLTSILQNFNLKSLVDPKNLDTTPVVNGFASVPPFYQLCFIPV

CC(C)[C@@H](C)/C=C/[C@@H](C)[C@H]1CC[C@@H]2[C@]1(C)CC[C@H]1[C@]23C=C[C@]2(C[C@@H](O)CC[C@]12C)OO3 [Compound 2, Ergosterol peroxide]
EC50 (SUM149): 6 µM | IC50 (SUM149): 6.03 µM | solubility at […] ([1]; distilled water, distilled H2O, UV/vis, read-out: solubility limit): 21.4 µg/mL (≈ 50 µM) | efflux ratio at 2 h, 10 µmol/L [2]: ~1 | Papp A→B at 2 h, 10 µmol/L [2]: 34.2 ×10⁻⁶ cm/s | Papp B→A at 2 h, 10 µmol/L [2]: 31.9 ×10⁻⁶ cm/s | IC50 (CYP2C9): > 25 µM | half-life [3]: > 48 h

CC(C)[C@@H](C)/C=C/[C@@H](C)[C@H]1CC[C@@H]2[C@]1(C)CC[C@H]1[C@]23C=C[C@]2(CC(=O)CC[C@]12C)OO3 [Compound 3]
EC50 (SUM149): 5 µM | IC50 (SUM149): 5.01 µM | solubility at […] ([1]; water): 10.7 µg/mL (≈ 25 µM) | efflux ratio at 2 h, 10 µmol/L [2]: 0.49 | Papp A→B at 2 h, 10 µmol/L [2]: 0.626 ×10⁻⁶ cm/s | Papp B→A at 2 h, 10 µmol/L [2]: 0.307 ×10⁻⁶ cm/s
